Measured values taken from patent US20150374672A1, “PRE-SELECTION OF SUBJECTS FOR THERAPEUTIC TREATMENT WITH AN HSP90 INHIBITORY COMPOUND BASED ON CHEMOSENSITIVE STATUS” (Synta Pharmaceuticals Corp., priority 2014, published 2015).

Columns and labels:
[1] = test system: solid and hematologic cancers; experiment: Preclinical studies of anti-cancer activity; conditions: monotherapy and in combination with widely used anti-cancer agents
[2] = test system: advanced solid tumor malignancies; experiment: Phase 1 dose-escalation, pharmacokinetic study of ganetespib in combination with docetaxel; assay type: in vivo, human; conditions: ganetespib schedule Days 1 and 15 of each cycle, preliminary data
Method: Patients were dosed once-weekly. Dosing was with 150 mg/m^2 ganetespib (days 1 and 15)+60 mg/m^2 docetaxel (Day 1). Initial ganetespib dosing regimen was Days 1 and 8; however, Day 8 was later changed to Day 15. Day 4 dosing with single agent ganetespib was added. The dose cycle was 2 weeks+1 week rest. The primary objective of this study was to determine the recommended doses for the combination of ganetespib and docetaxel in patients with advanced solid tumor malignancies. Secondary objectives were to define the DLTs associated with ganetespib in combination with docetaxel dosing, assess possible PK effects, and evaluate the safety, tolerability, and preliminary evidence of anti-tumor activity of the combination. A total of 27 patients were enrolled.

[3] = Safety of ganetespib across clinical trials (over 1,000 patients); assay type: in vivo, human
From the text: Ganetespib has been evaluated in a broad range of cancer clinical trials including the GALAXY NSCLC program (GALAXY-1 and GALAXY-2) in combination with docetaxel chemotherapy, and as monotherapy in certain genetically-defined targeted patient populations. A favorable safety profile has been consistently observed across clinical trials, involving over 1,000 patients treated with ganetespib to date. […] In the clinical trials conducted to date, ganetespib has shown promising activity both in combination with chemotherapy and as a monotherapy.

[4] = GALAXY-1 safety profile (adverse events) in adenocarcinoma patients
Method: (§1) Patients in both arms of GALAXY-1 received a standard regimen of docetaxel 75 mg/m^2 on day 1 of a 21-day treatment cycle. Patients in the combination arm also received ganetespib 150 mg/m^2 on days 1 and 15. Treatment continued until disease progression or until treatment intolerance. To ensure balance of prognostic factors between the two arms, patients were stratified by ECOG performance status (these scales and criteria are used by doctors and researchers to assess how a patient's disease is progressing, assess how the disease affects the daily living abilities of the patient, and determine appropriate treatment and prognosis), baseline lactate dehydrogenase (LDH) level, smoking status, and time since diagnosis of advanced disease.

advanced NSCLC = experiment: GALAXY-1 Phase 2b trial, ganetespib plus docetaxel vs. docetaxel alone: OS and PFS; assay type: in vivo, human
From the text: The GALAXY-1 trial was initiated in patients with advanced NSCLC who received one prior treatment for advanced disease, i.e., a second-line treatment setting. GALAXY-1 compared treatment with docetaxel (D) alone, which is approved for second-line treatment, vs. treatment with ganetespib (G) plus docetaxel (D). The aims of the study were to:
The key GALAXY-1 patient populations comprised populations with (1) elevated LDH (eLDH), (2) KRAS mutations (mKRAS) and/or (3) time since diagnosis of cancer of 6 months or greater (chemosensitive). A rationale for selecting a population with elevated LDH is that LDH-A is a marker of HIF-1α activity, and HIF-1α is a Hsp90 client, and drives invasiveness and metastasis. A rationale for selecting a population with KRAS mutation is that RAS signaling kinases are Hsp90 clients, and there is a medical need. A rationale for selecting a population in which the time since diagnosis of cancer is 6 months or greater (chemosensitive population) is that key cell cycle checkpoint/DNA repair kinases are Hsp90 clients. Additionally, key mitochondrial apoptosis pathway proteins are Hsp90 clients.
as §1
To ensure the specified number of eLDH and mKRAS patients were included, a total of 385 patients were enrolled in GALAXY-1.
Hazard ratios were calculated with Cox proportional hazards model. • Unadjusted: univariate analysis • Adjusted: pre-specified analysis adjusting for multiple prognostic variables such as gender, smoking status, LDH, ECOG performance status, interval since diagnosis of advanced disease, age, total baseline target lesion size, and geographic region.
This was a randomized, multicenter, parallel group study. Patients in both arms were treated with docetaxel per standard practice until disease progression or intolerability. Patients on both arms were treated until intolerability or disease progression per RECIST.
Key eligibility criteria were Stage IIIB/IV NSCLC; ECOG 0,1; one prior therapy in advanced setting; measurable disease by RECIST; documented disease progression; clinically stable CNS metastases; available tumor tissues; and adequate organ function.
Patients were randomized in a 1:1 ratio to receive either ganetespib in combination with docetaxel or docetaxel alone.
The experimental arm was dosed with ganetespib in combination with docetaxel 75 mg/m^2. Ganetespib (150 mg/m^2) and docetaxel (75 mg/m^2) were administered on Day 1 of a 3-week cycle. Ganetespib (150 mg/m^2) was administered again on Day 15 of each 3-week cycle. Docetaxel 75 mg/m^2 was administered on Day 1 of a 3-week treatment cycle. 385 patients were enrolled. A total of 381 patients received at least one dose of study drug.

[5] = Adenocarcinoma population, N = 253
[6] = Chemosensitive population, N = 177

## CC(C)c1cc(-c2nnc(O)n2-c2ccc3c(ccn3C)c2)c(O)cc1O [Ganetespib]
[1]
  anti-cancer activity in preclinical studies: potent anti-cancer activity
[2]
  recommended Phase 2 dose: 150 mg/m^2
[3]; clinical trials
  most common adverse event: transient, mild or moderate diarrhea
[3]; over 1,000 patients treated
  toxicities observed across clinical trials: not shown the serious liver or common ocular toxicities

## CC(=O)O[C@@]12CO[C@@H]1C[C@H](O)[C@@]1(C)C(=O)[C@H](O)C3=C(C)[C@@H](OC(=O)[C@H](O)[C@@H](NC(=O)OC(C)(C)C)c4ccccc4)C[C@@](O)([C@@H](OC(=O)c4ccccc4)[C@H]21)C3(C)C [D, docetaxel]
[4]; adenocarcinoma patients
  proportion of patients with AEs leading to death: 12%
[4]; human, in vivo
  diarrhea, all grades: 16%
  fatigue, all grades: 24%
  grade 3 or 4 anemia: 2%
  grade 3 or 4 fatigue: 4%
  grade 3 or 4 febrile neutropenia: 4%
  grade 3 or 4 neutropenia: 42%
  incidence of grade 3 or 4 diarrhea: 0%
  neutropenia, all grades: 45%
  proportion of patients with AEs leading to treatment discontinuation: 6%
Advanced NSCLC; [5]
  Median OS: 8.4 months
  Median PFS: 3.2 months
Advanced NSCLC; [6]
  Median OS: 7.4 months
  Median PFS: 3.4 months
Advanced NSCLC; eLDH population, N = 87
  Median OS: 5.1 months
  Median PFS: 2.7 months
Advanced NSCLC; mKRAS population, N = 89
  Median OS: 6.4 months
  Median PFS: 3.0 months
[2]
  recommended Phase 2 dose: 75 mg/m^2
